Results from patent publication US10829796B2, “Bacteria identification and antimicrobial susceptibility test” (priority 2015, dated 2020).

Legend:
Format in all cases: cell-based
Escherichia coli = test: Antibiotic susceptibility testing (colour of media), spiked milk; details: 37° C., plate configuration #3
Staphylococcus aureus = test: as above; details: T~16 h, 37° C., plate configuration #3
Streptococcus uberis = test: as above; details: T~16 h, 37° C., bacteria samples 6d, plate configuration #3
[1] = system: bacteria samples 4c, 4e, 5c, 5e, 6d; test: Antibiotic susceptibility testing (colour of media), plate configuration #3, reference colours at 0 hours for bacteria samples 4c, 4e, 5c, 5e, 6d; details: T~0 h
[2] = Benzyl Penicillin or Cloxacillin 1 μg/ml
[3] = Benzyl Penicillin or Cloxacillin 10 μg/ml
[4] = Benzyl Penicillin or Cloxacillin 100 μg/ml
[5] = Benzyl Penicillin or Cloxacillin 1,000 μg/ml
[6] = Benzyl Penicillin or Cloxacillin 10,000 μg/ml

SMILES: Cc1onc(-c2ccccc2Cl)c1C(=O)N[C@@H]1C(=O)N2[C@@H]1SC(C)(C)[C@@H]2C(=O)O [cloxacillin]
- Colour of media in each well (Escherichia coli; T~16 h, bacteria samples 4c, Benzyl Penicillin or Cloxacillin 1 μg/ml): yellow
- Colour of media in each well (Escherichia coli; T~16 h, bacteria samples 4c, Benzyl Penicillin or Cloxacillin 10 μg/ml): yellow
- Colour of media in each well (Escherichia coli; T~16 h, bacteria samples 4c, Benzyl Penicillin or Cloxacillin 100 μg/ml): yellow
- Colour of media in each well (Escherichia coli; T~16 h, bacteria samples 4c, Benzyl Penicillin or Cloxacillin 1,000 μg/ml): yellow
- Colour of media in each well (Escherichia coli; T~16 h, bacteria samples 4c, Benzyl Penicillin or Cloxacillin 10,000 μg/ml): red
- Colour of media in each well (Escherichia coli; t~16 h, bacteria samples 4e, Benzyl Penicillin or Cloxacillin 1 μg/ml): yellow
- Colour of media in each well (Escherichia coli; t~16 h, bacteria samples 4e, Benzyl Penicillin or Cloxacillin 10 μg/ml): yellow
- Colour of media in each well (Escherichia coli; t~16 h, bacteria samples 4e, Benzyl Penicillin or Cloxacillin 100 μg/ml): yellow
- Colour of media in each well (Escherichia coli; t~16 h, bacteria samples 4e, Benzyl Penicillin or Cloxacillin 1,000 μg/ml): red
- Colour of media in each well (Escherichia coli; t~16 h, bacteria samples 4e, Benzyl Penicillin or Cloxacillin 10,000 μg/ml): red
- Colour of media in each well (Staphylococcus aureus; bacteria samples 5c, Benzyl Penicillin or Cloxacillin 1 μg/ml): red
- Colour of media in each well (Staphylococcus aureus; bacteria samples 5c, Benzyl Penicillin or Cloxacillin 10 μg/ml): red
- Colour of media in each well (Staphylococcus aureus; bacteria samples 5c, Benzyl Penicillin or Cloxacillin 100 μg/ml): red
- Colour of media in each well (Staphylococcus aureus; bacteria samples 5c, Benzyl Penicillin or Cloxacillin 1,000 μg/ml): red
- Colour of media in each well (Staphylococcus aureus; bacteria samples 5c, Benzyl Penicillin or Cloxacillin 10,000 μg/ml): red
- Colour of media in each well (Staphylococcus aureus; bacteria samples 5e, Benzyl Penicillin or Cloxacillin 1 μg/ml): red
- Colour of media in each well (Staphylococcus aureus; bacteria samples 5e, Benzyl Penicillin or Cloxacillin 10 μg/ml): red
- Colour of media in each well (Staphylococcus aureus; bacteria samples 5e, Benzyl Penicillin or Cloxacillin 100 μg/ml): red
- Colour of media in each well (Staphylococcus aureus; bacteria samples 5e, Benzyl Penicillin or Cloxacillin 1,000 μg/ml): red
- Colour of media in each well (Staphylococcus aureus; bacteria samples 5e, Benzyl Penicillin or Cloxacillin 10,000 μg/ml): red
- Colour of media in each well (Streptococcus uberis; [2]): red
- Colour of media in each well (Streptococcus uberis; [3]): red
- Colour of media in each well (Streptococcus uberis; [4]): red
- Colour of media in each well (Streptococcus uberis; [5]): red
- Colour of media in each well (Streptococcus uberis; [6]): red
- Colour of media in each well [1, 2]: red
- Colour of media in each well [1, 3]: red
- Colour of media in each well [1, 4]: red
- Colour of media in each well [1, 5]: red
- Colour of media in each well [1, 6]: red
